We go through two compounds from patent US5444042A, “Method of treatment of neurodegeneration with calpain inhibitors” (Cortex Pharmaceuticals, priority 1994, dated 1995).

Where a SMILES comes first, the peptide text is derived from it. [ ]: non-standard residue; d: D form. The star is where a group is joined. Nle = CCCC[C@H](N)C(=O)O; Cbz = O=C(OCc1ccccc1)*; CH2Cl = ClC*

The test system of test [1] is hippocampal slices. Kind of test: Hippocampal slice survival after 10 min anoxia (Example 7A). Type of test: cell-based, rat. How it is done:
Hippocampal slices (400 um) were prepared from Sprague Dawley rats (6 to 7 weeks) and maintained in an interface chamber at 35° C. using conventional techniques, i.e., the lower surface of the slice received a constant perfusion (0.5 ml/min) of ACSF, while the upper surface was exposed to a moist atmosphere of O2 :CO2 (95%:5%) exchanged at a rate of 2 L/min. The ACSF medium contains (in mM): NaCl (124), KCl (3), KHPO4 (2.5), CaCl (3.4), NaHCO3 (26) and D-Glucose (10). Field excitatory post-synaptic responses were recorded from stratum radiatum of CAlb in response to stimulation of Schaffer-commissural fibers in CAla or CAlc. The depth of the recording electrode was optimized and evoked responses were collected at a rate of one evoked response every 30 seconds.
For the initial screening procedure, 14 to 16 slices are harvested from the hippocampus of a single rat and placed in a common ACSF bath. Each slice is tested in sequence to determine the magnitude of its pre-anoxic evoked response. Five stimulation pulses (each 0.1 ms (millisecond) in duration) were presented over a 15 second interval. The largest evoked response was noted and recorded for each slice.
After the one hour drug incubation period, the oxygen-enriched atmosphere of the chamber was made anoxic by substituting nitrogen for oxygen (N2 =95%; CO^2 =5%). The slices were retained in this anoxic environment for 10 minutes, following which the oxygen-enriched atmosphere (O^2 =95%; CO2 =5%) was reestablished.
The slices were given the opportunity to recover for 30 minutes following reoxygenation whereupon each was stimulated and the maximum evoked potential determined, as described above during the pre-anoxia period. Those slices which, after anoxia, produced a maximum evoked potential of greater than 50% of that observed prior to anoxia were defined as surviving slices.

Test [2] deals with rats injected with kainic acid. As to the kind of experiment: Kainate-induced behavioral symptoms and convulsions (Example 8A). In kind it is in vivo, rat. Conditions: 12 mg/kg kainic acid i.p., 4.6 mg calpain inhibitor in DMSO i.p., observed six hours. Here is the method: Rats (male Sprague-Dawley, 200±5 gms) were injected intraperitoneally with 12 mg/kg kainic acid in saline vehicle and ether 2001 μl DMSO (dimethylsulfoxide) or 4.6 mg calpain inhibitor dissolved in the same volume of DMSO.

Test [3] relates to Calpain in crude brain extracts. As to the kind of experiment: Ca2+-stimulated spectrin proteolysis in crude brain extracts (Example 2). In kind it is biochemical. A digest of the protocol:
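Brain tissue was homogenized in 10 mM Tris pH 7.4, 0.32 M sucrose, 1 mM EGTA and 1 mM DTT, and nuclei and debris were removed. Calpain activity was scored as Ca^2+-stimulated proteolysis of endogenous spectrin.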

The subject of a further test is N18-RE-105 cells. As to the kind of experiment: Glutamate-induced cell death, MTT conversion (Example 5). Conditions: 5 mM glutamate, inhibitor 3 μg/ml, 19 hours. Type of test: cell-based. How it is done:
Stock cultures of N18-RE-105 cells were maintained in Dulbecco's modified Eagle's medium (DMEM) containing 10% fetal bovine serum (FBS) and supplemented with hypoxanthine, aminopterin and thymidine (HAT). Subconfluent cultures were split and plated into 96-well plates. Twenty-four hours after plating the cells were exposed to fresh media containing glutamate and various concentrations of Calpain inhibitors. Control cells were not treated with glutamate. Conversion of MTT was measured 19 hours later as described. Nineteen hours after the onset of exposure, cell viability was quantitated by measuring the extent to which the cells convert 3(4,5-dimethylthiazol-2-yl)-2-5-diphenyltetrazolium bromide (MTT) to a blue formazan product, which occurs in the mitochondria of living but not dead cells (Pauwels et al., 1988). A higher absorbance is indicative of greater cell viability.

Test [4] deals with hippocampal slices. Kind of test: Hippocampal slice evoked potential recovery after anoxia (Example 7B). Type of test: cell-based, rat. Here is the method:
As in Example 7A, hippocampal slices (400 μm) were prepared from Sprague Dawley rats (6-7 weeks) and maintained in an interface chamber at 35° C. using conventional techniques, i.e. the lower surface of the slice received a constant perfusion (0.5 ml/min) of an artificial cerebrospinal fluid (ACSF), while the upper surface was exposed to a moist atmosphere of O2 :CO2 (95%:5%) exchanged at a rate of 2 L/min. The ACSF medium contains (in mM): NaCl (124), KCl (3), KHPO4 (1.25), MgSO4 (2.5), CaCl2 (3.4), NaHCO3 (26) and D-Glucose (10). Field excitatory post-synaptic responses were recorded from stratum radiatum of CA1b in response to stimulation of Schaffer-commissural fibers in CA1a or CA1c. The depth of the recording electrode was optimized and evoked responses were collected at a rate of one evoked response every 30 seconds.
After establishing a stable baseline of evoked responses (approximately 10 minutes), ACSF containing Calpain Inhibitor was washed into the chamber and slices were incubated for a period of one hour. After incubation, evoked responses were again recorded and the change in the amplitude of the responses from baseline levels was noted. No effect of the inhibitors tested on baseline evoked responses was observed.
For anoxia experiments, incubation in the drug-containing medium was followed by replacement of the O2 :CO2 (95%:5%) atmosphere with N2 :CO2 (95%:5%). Slices were exposed to this anoxic environment until disappearance of the pre-synaptic fiber volley and for two minutes (severe anoxia) longer (total time in anoxic environment approximately 7-8 minutes in control case). Effects of Calpain Inhibitors on the functional recovery of the slices after the anoxic episode were then measured. Recovery of the evoked potential (EPSP) slope and amplitude by the drug treated slices can be compared to control slices to determine the relative efficacy of various Calpain Inhibitors.

The next test concerns the target T1, Calpain I (Homo sapiens, UniProt P07384).
T1 sequence (P07384 1-714): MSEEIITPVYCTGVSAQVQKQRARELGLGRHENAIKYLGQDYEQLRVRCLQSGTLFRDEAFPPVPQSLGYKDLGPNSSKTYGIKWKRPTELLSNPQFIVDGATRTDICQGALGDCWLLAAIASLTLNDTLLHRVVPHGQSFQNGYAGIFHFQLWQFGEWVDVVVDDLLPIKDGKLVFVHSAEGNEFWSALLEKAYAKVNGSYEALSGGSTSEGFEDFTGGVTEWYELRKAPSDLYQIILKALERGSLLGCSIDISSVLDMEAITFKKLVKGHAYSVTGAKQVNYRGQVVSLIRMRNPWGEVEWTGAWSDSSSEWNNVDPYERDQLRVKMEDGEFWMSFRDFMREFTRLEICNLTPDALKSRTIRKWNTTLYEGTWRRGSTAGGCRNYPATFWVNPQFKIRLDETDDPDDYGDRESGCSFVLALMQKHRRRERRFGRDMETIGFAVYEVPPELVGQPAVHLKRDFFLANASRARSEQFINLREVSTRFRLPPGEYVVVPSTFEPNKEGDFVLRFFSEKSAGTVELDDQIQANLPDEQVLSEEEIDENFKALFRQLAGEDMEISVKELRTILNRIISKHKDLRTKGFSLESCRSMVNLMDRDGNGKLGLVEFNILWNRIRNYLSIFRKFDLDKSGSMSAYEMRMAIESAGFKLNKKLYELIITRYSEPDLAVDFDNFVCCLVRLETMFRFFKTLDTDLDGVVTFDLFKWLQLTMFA
T1 sequence (P04632 1-268 partner): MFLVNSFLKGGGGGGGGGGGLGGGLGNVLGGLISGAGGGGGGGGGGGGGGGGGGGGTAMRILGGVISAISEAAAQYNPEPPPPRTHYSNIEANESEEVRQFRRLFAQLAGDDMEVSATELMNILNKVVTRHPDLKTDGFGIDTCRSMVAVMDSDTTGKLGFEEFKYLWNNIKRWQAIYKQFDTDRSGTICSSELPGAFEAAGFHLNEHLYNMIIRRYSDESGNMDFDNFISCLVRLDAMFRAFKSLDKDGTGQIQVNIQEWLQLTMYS
As to the kind of experiment: Kapp/[I] progress curve method, human Calpain I (Table 1C). In kind it is biochemical. Conditions: Suc-leu-tyr-amidomethylcoumarin. How it is done: The Halo-Ketone Peptides, like the substituted isocoumarins, are irreversible inhibitors of Calpain. We determined the Kapp /[I] values for various members of this class of compounds against Calpains I and II. For comparison, we also determined these values against the additional thiol proteases Papain and Cathepsin B for at least one Halo-Ketone Peptide.
We assayed Calpain I and II using Suc-leu-tyr-amidomethylcoumarin. Papain was assayed using benzoyl-arg-4-nitroanilide, and Cathepsin B (bovine) was assayed using CBZ-lys-4-nitrophenyl ester. We followed the progress curve method of Tian and Tsou, Biochemistry, 21:1028-1032 (1982), the disclosure of which is hereby incorporated by reference, to derive kinetic data. Briefly, this method makes use of the equation: [formula] where [P.infin. ] represents the concentration of product formed at a time approaching infinity, A is the Kapp in the presence of substrate (S), K is the Michaelis constant and [Y] is the concentration of the inhibitor. Since [S] and [Y] are known and V and K can be determined, Kapp can be readily determined.

A further test has as its system Calpain within platelets. As to the kind of experiment: Platelet membrane permeation assay, spectrin proteolysis (Examples 4A, 4B). Type of test: cell-based, rat. Conditions: 100 μM, A23187 1 μM. A digest of the protocol:
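Rat (Sprague-Dawley) platelets at 10^7 cells/ml in HEPES buffer pH 7.4, preincubated 5 min with inhibitor, then 5 min with 1 μM A23187 to activate calpain. Spectrin proteolysis assessed by SDS-PAGE and anti-spectrin immunoblot, quantified by densitometry.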

A further test deals with Calpain II. As to the kind of experiment: Kapp/[I] progress curve method, Calpain II (Table 1C). In kind it is biochemical. Set-up: unit not given here. Conditions: Rabbit Calpain II, Suc-leu-tyr-amidomethylcoumarin. Summed up: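 Irreversible inactivation of calpains I and II followed with Suc-Leu-Tyr-AMC substrate; papain assayed with benzoyl-Arg-4-nitroanilide. Kapp derived by the Tian–Tsou progress-curve method from product formed at infinite time, known substrate and inhibitor concentrations, Vmax and Km; values reported as Kapp/[I].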

Turning to `CCCC[C@@H](C=O)NC(=O)[C@H](CC(C)C)NC(=O)[C@H](CC(C)C)NC(C)=O` [CI1, Ac-Leu-Leu-Nle-H, reference compound] (Ac-Leu-Leu-[Nle]-aldehyde), the “protection of slices from anoxia (FIG. 3)” value in the test on hippocampal slices [1] (10 minutes anoxic atmosphere) is “protected from the effects of anoxia”. Moreover, the “Survival of slices after ten minutes anoxia” value in the test on hippocampal slices [1] (Dose 200 μM, incubation 2 hours) was determined as 53%. Further, the “kainate-induced behavioral symptoms and convulsions (FIG. 7)” value in test [2] is “incidence and severity of convulsions was reduced”. Moreover, in test [3] (concentration not given), the “inhibition in the system of Example 2” value is “showed inhibition”. Also, the “blue formazan product relative to control without glutamate” value in the test on N18-RE-105 cells is on record as “protect N18-RE-105 cells against glutamate toxicity”. Also, the “% Recovery of synaptic transmission after anoxia” value with hippocampal slices [4] (Concentration 200, ten minutes anoxia) was determined as 35%. Besides, the “period of anoxia required to produce fiber volley disappearance (FIG. 6)” value in the test on hippocampal slices [4] (hippocampal slices) is reported as “does not significantly lengthen the period of anoxia required to suppress electrical activity”.

With `CC(C)CC(NC(=O)OCc1ccccc1)C(=O)NC(Cc1ccccc1)C(=O)CCl` (stereo not drawn) [Z-Leu-Phe-CH2 Cl] (Cbz-Leu-Phe-CH2Cl; configuration not given here), the “inhibition of spectrin proteolysis in crude brain extracts” value in test [3] (100 μM) is “significant inhibition”. Further, the “Kapp/[I] CI” value on Calpain I came to 225000. The “inhibition of Calpain within platelets” value in the test on Calpain within platelets is “significant inhibition”. Further, in the test with Calpain II, the “Kapp/[I] CII” value turned out to be 585000.
